The source of these data is US20250026769A1, “PAPD5 INHIBITORS AND METHODS OF USE THEREOF” (The Children's Medical Center Corporation, priority 2021, published 2025).

Usually ΔTm stands for the change in melting temperature against a reference sample.

For the first experiment, the target named is T1, rPAPD5 (Homo sapiens, UniProt Q8NDF8).
T1 construct: made in house
T1 sequence (Q8NDF8 68-698 isoform Q8NDF8-5 limits assumed): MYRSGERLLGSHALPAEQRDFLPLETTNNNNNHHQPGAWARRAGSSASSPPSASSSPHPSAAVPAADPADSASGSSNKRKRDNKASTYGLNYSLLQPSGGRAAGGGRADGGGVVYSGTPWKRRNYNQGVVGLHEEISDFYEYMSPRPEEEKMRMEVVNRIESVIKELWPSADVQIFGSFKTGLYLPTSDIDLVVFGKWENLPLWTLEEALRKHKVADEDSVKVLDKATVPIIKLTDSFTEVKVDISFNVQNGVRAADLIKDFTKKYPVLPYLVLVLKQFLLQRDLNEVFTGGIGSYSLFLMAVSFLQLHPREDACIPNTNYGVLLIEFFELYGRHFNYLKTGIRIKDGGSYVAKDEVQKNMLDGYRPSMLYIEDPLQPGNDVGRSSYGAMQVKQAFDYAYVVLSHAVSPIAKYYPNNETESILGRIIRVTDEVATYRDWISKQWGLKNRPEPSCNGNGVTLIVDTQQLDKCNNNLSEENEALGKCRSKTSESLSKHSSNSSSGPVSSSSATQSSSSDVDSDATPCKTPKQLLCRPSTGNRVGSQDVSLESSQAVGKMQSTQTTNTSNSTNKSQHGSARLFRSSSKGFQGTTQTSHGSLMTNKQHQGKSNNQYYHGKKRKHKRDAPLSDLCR
Description: differential scanning fluorimetry (DSF) binding and stabilization of rPAPD5. Particulars: 1 μM test compound (Table 2a); read-out: ΔTm at 1 μM. In a few lines:
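Compound-induced shifts in rPAPD5 melting temperature were determined by thermal shift (DSF). Protein at […] was mixed with a non-extendable ATP analog […] in Tris-HCl (25 mM), MgCl2 (5 mM) and KCl (50 mM), with SYPRO orange at 1:5000. Curves were averages of three measurements analyzed with Thermal Shift software, and ΔTm was referenced to DMSO.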
On the technique in general: DSF heats the sample and reads unfolding from a dye or from intrinsic fluorescence.
Turning to `O=C(O)c1cc(Cl)ccc1Nc1c(-c2nnn[nH]2)cnc2ccc(Cl)cc12` [Compound 359A, 5-chloro-2-[[6-chloro-3-(1H-tetrazol-5-yl)-4-quinolyl]amino]benzoic acid], the ΔTm at 1 µM is above 5 °C.

The same experiment, now with this note: 10 μM test compound (Table 2a); read-out: ΔTm at 10 μM.
For the molecule `O=C(O)c1cc(Cl)ccc1Nc1c(-c2nnn[nH]2)cnc2ccc(Cl)cc12` [Compound 359A, 5-chloro-2-[[6-chloro-3-(1H-tetrazol-5-yl)-4-quinolyl]amino]benzoic acid], the thermal shift (ΔTm) at 10 µM was above 5 °C.

Still in this experiment, the particulars now being: 100 μM test compound; shift vs DMSO control; read-out: ΔTm at 100 μM.
With `Cn1cc(-c2ccc3ncc(S(=O)(=O)N4CCOCC4)c(Nc4ccccc4C(=O)O)c3c2)ccc1=O` [Compound 150A], the ΔTm at 100 µM was above 5 °C.

Take `O=C(O)c1ccccc1Nc1c(-c2cnco2)cnc2ccc(Cl)cc12` [Compound 134A]: the thermal shift (ΔTm) at 100 µM was above 5 °C.

Consider `O=C(O)c1ccccc1Nc1c(-c2ccncc2)cnc2ccc(Cl)cc12` [Compound 209A, 2-[[6-chloro-3-(4-pyridyl)-4-quinolyl]amino]benzoic acid], for which the thermal shift (ΔTm) at 100 µM was above 5 °C.

Take `NS(=O)(=O)c1ccc(NS(=O)(=O)c2cnc3ccc(Cl)cc3c2Nc2ccccc2C(=O)O)cc1` [Compound 231A, 2-[[6-chloro-3-[(4-sulfamoylphenyl)sulfamoyl]-4-quinolyl]amino]benzoic acid]: the ΔTm at 100 µM is above 5 °C.

For the molecule `O=C(O)c1ccccc1Nc1c(S(=O)(=O)NC2CCOCC2)cnc2ccc(Cl)cc12` [Compound 216A, 2-[[6-chloro-3-(tetrahydropyran-4-ylsulfamoyl)-4-quinolyl]amino]benzoic acid], the ΔTm at 100 µM is above 5 °C.

For `O=C(O)c1ccccc1Nc1c(S(=O)(=O)N2CCOCC2)cnc2ccc(NC3CCOCC3)cc12` [Compound 237A, 2-[[3-morpholinosulfonyl-6-(tetrahydropyran-4-ylamino)-4-quinolyl]amino]benzoic acid], the thermal shift (ΔTm) at 100 µM was below 1 °C.

In the case of `O=C(O)c1ccccc1Nc1c(S(=O)(=O)N2CCOCC2)cnc2ccc(OC(F)(F)F)cc12` [Compound 131A], the ΔTm at 100 µM is above 5 °C.

For `O=C(O)c1ccccc1Nc1c(S(=O)(=O)N2CCOCC2)cnc2ccc(Nc3ccncc3)cc12` [Compound 240A, 2-[[3-morpholinosulfonyl-6-(4-pyridylamino)-4-quinolyl]amino]benzoic acid], the shift in melting temperature (ΔTm) at 100 µM is 1 to 5 °C.

As to `O=C(O)c1c(Nc2c(S(=O)(=O)N3CCOCC3)cnc3ccc(Cl)cc23)cccc1-c1ccn[nH]1` [Compound 91A-Cl], the ΔTm at 100 µM was in the range of 1 to 5 °C.

Consider `O=C(O)c1ccccc1Nc1c(S(=O)(=O)N2CC3(COC3)C2)cnc2ccc(Cl)cc12` [Compound 135A], for which the thermal shift (ΔTm) at 100 µM was above 5 °C.

Turning to `O=C(O)c1ccccc1Nc1c(S(=O)(=O)N2CCS(=O)(=O)CC2)cnc2ccc(Cl)cc12` [Compound 220A, 2-[[6-chloro-3-[(1,1-dioxo-1,4-thiazinan-4-yl)sulfonyl]-4-quinolyl]amino]benzoic acid], the thermal shift (ΔTm) at 100 µM is above 5 °C.

Consider `O=C(O)c1ccccc1Nc1c(S(=O)(=O)N2CCOCC2)cnc2ccc(-c3cn(S(=O)(=O)c4ccccc4)c4ncccc34)cc12` [Compound 144A], for which the ΔTm at 100 µM was above 5 °C.

With `O=C(O)c1ccccc1Nc1c(NC2CCOCC2)cnc2ccc(Cl)cc12` [Compound 184A, 2-[[6-chloro-3-(tetrahydropyran-4-ylamino)-4-quinolyl]amino]benzoic acid], the ΔTm at 100 µM is above 5 °C.

As for `O=C(O)c1ccc(-c2ccc3ncc(S(=O)(=O)N4CCOCC4)c(Nc4ccccc4C(=O)O)c3c2)cc1` [Compound 173A, 2-[[6-(4-carboxyphenyl)-3-morpholinosulfonyl-4-quinolyl]amino]benzoic acid], the ΔTm at 100 µM fell in the range of 1 to 5 °C.

For the molecule `CC(C)c1ccc(Nc2c(S(=O)(=O)N3CCOCC3)cnc3ccc(Cl)cc23)c(C(=O)O)c1` [Compound 320A, 2-[(6-chloro-3-morpholinosulfonyl-4-quinolyl)amino]-5-isopropyl-benzoic acid], the thermal shift (ΔTm) at 100 µM lay within 1 to 5 °C.

Regarding `Cc1ccc(C(=O)O)c(Nc2c(S(=O)(=O)N3CCOCC3)cnc3ccc(Cl)cc23)c1` [Compound 272A, 2-[(6-chloro-3-morpholinosulfonyl-4-quinolyl)amino]-4-methyl-benzoic acid], the ΔTm at 100 µM is above 5 °C.

For the molecule `O=C(O)c1ccccc1Nc1c(S(=O)(=O)N2CCOCC2)cnc2ccc(-c3cncc(C4CC4)c3)cc12` [Compound 153A, 2-[[6-(5-cyclopropyl-3-pyridyl)-3-morpholinosulfonyl-4-quinolyl]amino]benzoic acid], the thermal shift (ΔTm) at 100 µM lay in the range of 1 to 5 °C.

`O=C(O)c1ccccc1Nc1c(S(=O)(=O)N2CCOCC2)cnc2ccc(-c3ccc(N4CCCC4)nc3)cc12` [Compound 157A, 2-[[3-morpholinosulfonyl-6-(6-pyrrolidin-1-yl-3-pyridyl)-4-quinolyl]amino]benzoic acid]: the shift in melting temperature (ΔTm) at 100 µM was below 1 °C.

As to `O=C(O)c1ccccc1Nc1c(S(=O)(=O)N2CC(CO)(CCl)C2)cnc2ccc(Cl)cc12` [Compound 135A-BP], the ΔTm at 100 µM was above 5 °C.

As for `O=C(O)c1c(Nc2c(S(=O)(=O)N3CCOCC3)cnc3ccc(Cl)cc23)cccc1-c1ncco1` [Compound 261A, 2-[(6-chloro-3-morpholinosulfonyl-4-quinolyl)amino]-6-oxazol-2-yl-benzoic acid], the ΔTm at 100 µM was below 1 °C.

`O=C(O)c1ccccc1Nc1c(S(=O)(=O)N2CCOCC2)cnc2ccc(O)cc12` [Compound 322A, 2-[(6-hydroxy-3-morpholinosulfonyl-4-quinolyl)amino]benzoic acid]: the ΔTm at 100 µM is above 5 °C.

As for `O=C(O)c1ccc(C(F)(F)F)cc1Nc1c(S(=O)(=O)N2CCOCC2)cnc2ccc(Cl)cc12` [Compound 278A, 2-[(6-chloro-3-morpholinosulfonyl-4-quinolyl)amino]-4-(trifluoromethyl)benzoic acid], the thermal shift (ΔTm) at 100 µM lay in the range of 1 to 5 °C.

Consider `COC(=O)c1ccccc1Nc1c(S(=O)(=O)N2CCOCC2)cnc2ccc(Cl)cc12` [Compound 124A], for which the thermal shift (ΔTm) at 100 µM fell in the range of 1 to 5 °C.

In the case of `O=C(O)c1cc(Cl)ccc1Nc1c(-c2nnn[nH]2)cnc2ccc(Cl)cc12` [Compound 359A, 5-chloro-2-[[6-chloro-3-(1H-tetrazol-5-yl)-4-quinolyl]amino]benzoic acid], the ΔTm at 100 µM was above 5 °C.

As for `Cc1c[nH]c2ncc(-c3ccc4ncc(S(=O)(=O)N5CCOCC5)c(Nc5ccccc5C(=O)O)c4c3)cc12` [Compound 156A, 2-[[6-(3-methyl-TH-pyrrolo[2,3-b]pyridin-5-yl)-3-morpholinosulfonyl-4-quinolyl]amino]benzoic acid], the ΔTm at 100 µM was above 5 °C.

Regarding `O=C(O)c1ccccc1Nc1c(S(=O)(=O)N2CCOCC2)cnc2ccc(C(F)(F)F)cc12` [Compound 234A, 2-[[3-morpholinosulfonyl-6-(trifluoromethyl)-4-quinolyl]amino]benzoic acid], the thermal shift (ΔTm) at 100 µM was above 5 °C.

Consider `O=C(O)c1ccccc1Nc1c(S(=O)(=O)N2CCOCC2)cnc2ccc(-c3cnn(C4CCOC4)c3)cc12` (centres unmarked) [Compound 148A-R], for which the thermal shift (ΔTm) at 100 µM lay in the range of 1 to 5 °C.

As to `O=C(O)c1ccccc1Nc1c(S(=O)(=O)Nc2ccncc2)cnc2ccc(Cl)cc12` [Compound 221A, 2-[[6-chloro-3-(4-pyridylsulfamoyl)-4-quinolyl]amino]benzoic acid], the ΔTm at 100 µM was above 5 °C.

On to `O=C(O)c1ccccc1Nc1c(C2CCS(=O)(=O)CC2)cnc2ccc(Cl)cc12` [Compound 208A, 2-[[6-chloro-3-(1,1-dioxothian-4-yl)-4-quinolyl]amino]benzoic acid], for which the ΔTm at 100 µM is above 5 °C.

`CN(C)c1cncc(-c2ccc3ncc(S(=O)(=O)N4CCOCC4)c(Nc4ccccc4C(=O)O)c3c2)c1` [Compound 152A, 2-[[6-[5-(dimethylamino)-3-pyridyl]-3-morpholinosulfonyl-4-quinolyl]amino]benzoic acid]: the ΔTm at 100 µM fell in the range of 1 to 5 °C.

Consider `O=C(O)c1ccc(Br)cc1Nc1c(S(=O)(=O)N2CCOCC2)cnc2ccc(Cl)cc12` [Compound 276A, 4-bromo-2-[(6-chloro-3-morpholinosulfonyl-4-quinolyl)amino]benzoic acid], for which the ΔTm at 100 µM was above 5 °C.

On to `O=C(O)c1cccc(C(F)(F)F)c1Nc1c(S(=O)(=O)N2CCOCC2)cnc2ccc(Cl)cc12` [Compound 285A, 2-[(6-chloro-3-morpholinosulfonyl-4-quinolyl)amino]-3-(trifluoromethyl)benzoic acid], for which the ΔTm at 100 µM was below 1 °C.

Turning to `O=C(O)c1ccccc1Nc1c(Br)cnc2ccc(Cl)cc12` [Compound 232A, 2-[(3-bromo-6-chloro-4-quinolyl)amino]benzoic acid], the shift in melting temperature (ΔTm) at 100 µM was above 5 °C.

On to `CNC(=O)c1ccc(-c2ccc3ncc(S(=O)(=O)N4CCOCC4)c(Nc4ccccc4C(=O)O)c3c2)cn1` [Compound 167A, 2-[[6-[6-(methylcarbamoyl)-3-pyridyl]-3-morpholinosulfonyl-4-quinolyl]amino]benzoic acid], for which the ΔTm at 100 µM was below 1 °C.

Regarding `O=C(O)c1ccccc1Nc1c(S(=O)(=O)N2CCOCC2)cnc2ccc(Nc3ccc4[nH]cnc4c3)cc12` [Compound 247A, 2-[[6-(1H-benzimidazol-5-ylamino)-3-morpholinosulfonyl-4-quinolyl]amino]benzoic acid], the thermal shift (ΔTm) at 100 µM fell in the range of 1 to 5 °C.

For the molecule `COc1ccc(Nc2c(C3=CCOCC3)cnc3ccc(Cl)cc23)c(C(=O)O)c1` [Compound 308A, 2-[[6-chloro-3-(3,6-dihydro-2H-pyran-4-yl)-4-quinolyl]amino]-5-methoxy-benzoic acid], the ΔTm at 100 µM was above 5 °C.

As for `CN1CCC(c2cnc3ccc(Cl)cc3c2Nc2ccccc2C(=O)O)CC1` [Compound 207A, 2-[[6-chloro-3-(1-methyl-4-piperidyl)-4-quinolyl]amino]benzoic acid], the ΔTm at 100 µM was above 5 °C.

Consider `O=C(O)c1ccccc1Nc1c(S(=O)(=O)N2CCOCC2)cnc2ccc(-c3cc4cc(Cl)ccc4s3)cc12` [Compound 146A-C1], for which the ΔTm at 100 µM is below 0 °C.

With `NS(=O)(=O)c1ccc2ncc(S(=O)(=O)N3CCOCC3)c(Nc3ccccc3C(=O)O)c2c1` [Compound 249A, 2-[(3-morpholinosulfonyl-6-sulfamoyl-4-quinolyl)amino]benzoic acid], the ΔTm at 100 µM was above 5 °C.
